# Results as given in patent publication US10906946B2, “Thrombin inhibitors” (priority 2015, dated 2021).
# Read-outs that look alike come from different tables or passages of the source. Peptide text beside a SMILES is read from it.
# Legend:
# [1] = molecular target: T1, thrombin (Homo sapiens, UniProt P00734); experiment: Inhibition of thrombin fibrinogenolytic activity (fibrinogen clotting time); format: biochemical
# T1 construct: residues in the termini of the light chain; and in the autolysis loop and C-terminus of the heavy chain; purchased Chemo-Sero-Therapeutic Research Institute (Kaketsuken, Japan), as a gift, not bought
# Protocol: Thrombin amidolytic activity assays for all peptides were performed in 96-wells microtiter plates in 50 mM Tris buffer (pH 7.4) containing 100 mM NaCl and 1 mg/ml bovine serum albumin. Typically, 100 μl of peptide and 100 μl of thrombin were pre-incubated for different durations before 100 μl of S2238 was added to the reaction wells. The rates of formation of p-nitroaniline were followed by measuring the absorbance at 405 nm for 10 min with a Tecan InfinitePro M200 microplate reader from Tecan (Männedorf, Switzerland). Dose-response curves were fitted using the GraphPad Prizm software (San Diego, Calif., USA) to calculate IC50 values and Hill coefficients. To measure the inhibitory constants, different concentrations of S2238 were used and the residual velocities were determined using the Morrison's tight binding equation. Inhibition of thrombin fibrinogenolytic activity of peptides were tested by measuring absorbance at 650 nm using a Sunrise microplate reader from Tecan (Männedorf, Switzerland) as described previously [Koh C Y, et al., J Biol Chem 282: 29101-13 (2007)]. The selectivity of avathrin was examined against 13 serine proteases (FIG. 5). Effects of avathrin on the amidolytic activities of these serine proteases were determined using respective chromogenic substrates. Cleavage of avathrin by thrombin. Avathrin (150 μM) was incubated with thrombin (5 μM), in 50 mM Tris buffer (pH 7.4) containing 150 mM NaCl and 1 mg/ml BSA. After different incubation times, reactions were quenched with 1% TFA (pH 1.8) and loaded onto a Jupiter Proteo column (4 μm, 90 Å, 100×1.0 mm) attached to a Dionex nano-HPLC system from Thermo Fisher Scientific (Waltham, Mass., USA) and eluted using an acetonitrile gradient with 0.05% TFA and 99.95% MilliQ water as eluent A and 0.05% TFA, 19.95% MilliQ water and 80% ACN as eluent B. Masses of all peaks were measured to identify cleavage products, which were subsequently quantified by integrating the peaks and calculating the area under the curves. To measure the effect of different pre-incubation times on the thrombin inhibitory activity, amidolytic assays were performed for various incubation times (up to 36 h).
# [2] = system: blood; experiment: Anti-coagulation effect of peptides in blood tubes (visual clot formation); design: species or system human (healthy volunteers); conditions: room temperature
# Protocol: Individual peptides are dissolved in phosphate buffered saline to prepare 10× peptide solutions (ie. concentrations of peptides are 10 times higher than the final concentrations at which they are to be tested). 0.3 ml of the 10× peptide solutions are placed in blood tubes without any additives. Blood was drawn from healthy volunteers using syringes and immediately transferred to a 50 ml conical centrifuge tube (Falcon tube) before pipetting 2.7 ml of the blood into blood tubes with peptide solutions. Final concentrations of peptides are as stated in Table 5 and 6.
# Blood tubes with various peptides at different concentrations were left standing at room temperature until tested at designated times. At different time points, tubes were inverted several times and visually inspected for insoluble materials as indications of clot formation.
# [3] = molecular target: T2, human α-thrombin (Homo sapiens, UniProt P00734); experiment: Thrombin amidolytic activity assay with chromogenic substrate S2238; format: biochemical
# T2 construct: residues in the termini of the light chain; purchased Chemo-Sero-Therapeutic Research Institute (Kaketsuken, Japan), as a gift, not bought
# Method in brief: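 Run in 50 mM Tris pH 7.4, 100 mM NaCl, 1 mg/ml BSA; p-nitroaniline release from S2238 monitored at 405 nm for 10 min. IC50 and Hill coefficients from dose-response fits; inhibition constants from varied S2238 concentrations using Morrison tight-binding equation.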
# [4] = final concentration 75 micromolar
# [5] = final concentration 150 micromolar
# [6] = final concentration 300 micromolar
# [7] = inhibitory constant Ki for thrombin, thrombin 0.81 nM, various S2238 concentrations
Structure (SMILES),effect on fibrinogen clotting time / thrombin fibrinogenolytic activity [1],effect on fibrinogen clotting time / thrombin fibrinogenolytic activity ([1]; listed as avathrin),"Time to observe clot formation [2, 4] [h]","Time to observe clot formation [2, 5] [h]","Time to observe clot formation [2, 6] [h]",times higher affinity for thrombin than Bivalirudin [3],Hill slope of thrombin amidolytic inhibition ([3]; 0 min pre-incubation where stated),"Hill slope of thrombin amidolytic inhibition, 10 min pre-incubation ([3]; 10 min pre-incubation)","IC50 ([3]; IC50(nM), Table 2) [nM]",Hill Slope ([3]; Table 2),"thrombin amidolytic activity inhibited after prolonged incubation ([3]; at 24 h, same avathrin:thrombin ratio as cleavage experiments) [%]","Ki [3, 7] [nM]",inhibition at 0.01 µM ([3]; read-out: inhibition of thrombin activity) [%],inhibition at 0.001 µM ([3]; read-out: inhibition of thrombin amidolytic activity at equimolar concentrations) [%],fold more potent than variegin (Ki) [3],fold stronger affinity compared to avathrin and variegin [3] [fold],"Ki ([3]; Affinity (nM), Table 4, Ki values) [nM]","IC50 ([3]; IC50 (nM), Table 5) [nM]","IC50 ([3]; IC50 of inhibition of thrombin amidolytic activity, thrombin 0.81 nM, S2238 100 μM, without pre-incubation (0 min) where stated) [nM]","Ki ([3]; Ki (pM), Table 5) [nM]"
CC[C@H](C)[C@H](NC(=O)[C@H](CCCCN)NC(=O)[C@@H]1CCCN1C(=O)[C@@H](NC(=O)[C@H](C)NC(=O)[C@@H](NC(=O)[C@H](CCC(N)=O)NC(=O)[C@H](Cc1c[nH]cn1)NC(=O)CNC(=O)CNC(=O)[C@@H](N)CO)[C@@H](C)O)C(C)C)C(=O)N[C@@H](CO)C(=O)N[C@@H](CCCCN)C(=O)N[C@@H](CCC(N)=O)C(=O)NCC(=O)N[C@@H](CC(C)C)C(=O)NCC(=O)NCC(=O)N[C@@H](CC(=O)O)C(=O)N[C@@H](Cc1ccccc1)C(=O)N[C@@H](CCC(=O)O)C(=O)N[C@@H](CCC(=O)O)C(=O)N[C@H](C(=O)N1CCC[C@H]1C(=O)N[C@@H](CO)C(=O)N[C@@H](CC(=O)O)C(=O)N[C@@H](CCC(=O)O)C(=O)N[C@H](C(=O)N[C@H](C(=O)N[C@@H](CCC(=O)O)C(=O)O)[C@@H](C)CC)[C@@H](C)CC)[C@@H](C)CC [Avathrin] (H-SGGHQTAVPKISKQGLGGDFEEIPSDEIIE-OH; N-terminus and C-terminus assumed),prolonged fibrinogen clotting time in a dose-dependent manner,prolonged fibrinogen clotting times in a dose dependent manner,42 to 52,52 to 66,52 to 66,approximately 5 times,0.92±0.01,0.94±0.02,6.95 ± 0.42,0.92 ± 0.02,> 45,0.5453 ± 0.0031,65,14.3 ± 1.39,–,–,–,–,–,–
CC[C@H](C)[C@H](NC(=O)[C@H](C)NC(=O)[C@H](CC(=O)O)NC(=O)[C@H](CC(=O)O)NC(=O)[C@@H]1CCCN1C(=O)[C@@H](NC(=O)[C@H](CCC(=O)O)NC(=O)[C@H](CCC(=O)O)NC(=O)[C@H](Cc1ccccc1)NC(=O)[C@H](CC(=O)O)NC(=O)CNC(=O)[C@@H]1CCCN1C(=O)[C@@H]1CCCN1C(=O)[C@H](C)NC(=O)[C@@H](NC(=O)[C@H](CO)NC(=O)[C@H](Cc1ccc(O)cc1)NC(=O)[C@H](CCSC)NC(=O)[C@H](CCCCN)NC(=O)[C@@H]1CCCN1C(=O)[C@@H](NC(=O)[C@H](C)NC(=O)[C@H](CCCNC(=N)N)NC(=O)[C@@H](NC(=O)[C@H](C)NC(=O)[C@H](CCC(=O)O)NC(=O)[C@H](CC(=O)O)NC(=O)[C@@H](N)CO)C(C)C)[C@@H](C)CC)[C@@H](C)O)[C@@H](C)CC)C(=O)N[C@@H](CCC(=O)O)C(=O)N[C@@H](CCC(=O)O)C(=O)O [Ultravariegin] (H-SDEAVRAIPKMYSTAPPGDFEEIPDDAIEE-OH; N-terminus and C-terminus assumed),prolonged fibrinogen clotting times in a dose dependent manner,–,91 to 101,101 to 139,101 to 139,~650 times,–,–,–,–,–,0.0015,–,–,more than 70 fold,> 200,0.001,0.4 ± 0.09,0.26 ± 0.008,0.0044 ± 0.00035
